Test results from patent publication US9040533B2, “Oxime-substituted-quinoxaline-type piperidine compounds as ORL-1 modulators” (priority 2012, dated 2015).

Key:
Assay in all cases: biochemical
[1] = target: T1, CYP1A2 (Homo sapiens, UniProt P05177)
T1 sequence (P05177 1-516): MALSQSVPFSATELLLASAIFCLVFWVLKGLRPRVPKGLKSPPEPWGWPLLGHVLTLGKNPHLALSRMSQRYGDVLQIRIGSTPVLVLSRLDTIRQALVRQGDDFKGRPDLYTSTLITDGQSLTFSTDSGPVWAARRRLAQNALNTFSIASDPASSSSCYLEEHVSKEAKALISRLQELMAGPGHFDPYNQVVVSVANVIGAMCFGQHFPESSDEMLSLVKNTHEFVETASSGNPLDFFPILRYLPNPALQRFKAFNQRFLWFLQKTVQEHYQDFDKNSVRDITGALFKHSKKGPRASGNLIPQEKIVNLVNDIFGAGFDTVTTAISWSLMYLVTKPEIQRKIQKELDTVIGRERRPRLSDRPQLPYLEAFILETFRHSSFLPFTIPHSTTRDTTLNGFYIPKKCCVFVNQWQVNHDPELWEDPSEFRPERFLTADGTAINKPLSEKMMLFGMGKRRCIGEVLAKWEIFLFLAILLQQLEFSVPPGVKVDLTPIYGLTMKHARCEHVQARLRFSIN

[2] = target: CYP2D6 (Homo sapiens, UniProt P10635)
Chain of CYP2D6 (P10635 whole entry): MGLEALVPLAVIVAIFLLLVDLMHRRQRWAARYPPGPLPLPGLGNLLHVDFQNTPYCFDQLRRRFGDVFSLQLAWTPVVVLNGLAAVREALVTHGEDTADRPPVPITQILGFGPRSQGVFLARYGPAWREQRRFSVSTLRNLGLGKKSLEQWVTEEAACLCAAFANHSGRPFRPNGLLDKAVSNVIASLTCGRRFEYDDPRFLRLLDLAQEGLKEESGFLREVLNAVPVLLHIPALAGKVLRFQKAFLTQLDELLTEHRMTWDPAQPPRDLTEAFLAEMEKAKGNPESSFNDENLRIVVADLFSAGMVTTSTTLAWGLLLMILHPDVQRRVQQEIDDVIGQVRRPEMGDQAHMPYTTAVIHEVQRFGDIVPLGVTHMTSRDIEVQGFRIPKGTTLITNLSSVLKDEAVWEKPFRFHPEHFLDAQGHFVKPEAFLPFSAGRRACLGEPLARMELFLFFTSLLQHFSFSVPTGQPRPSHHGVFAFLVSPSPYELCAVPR

[3] = target: CYP2C9 (Homo sapiens, UniProt P11712)
Chain of CYP2C9 (P11712 whole entry): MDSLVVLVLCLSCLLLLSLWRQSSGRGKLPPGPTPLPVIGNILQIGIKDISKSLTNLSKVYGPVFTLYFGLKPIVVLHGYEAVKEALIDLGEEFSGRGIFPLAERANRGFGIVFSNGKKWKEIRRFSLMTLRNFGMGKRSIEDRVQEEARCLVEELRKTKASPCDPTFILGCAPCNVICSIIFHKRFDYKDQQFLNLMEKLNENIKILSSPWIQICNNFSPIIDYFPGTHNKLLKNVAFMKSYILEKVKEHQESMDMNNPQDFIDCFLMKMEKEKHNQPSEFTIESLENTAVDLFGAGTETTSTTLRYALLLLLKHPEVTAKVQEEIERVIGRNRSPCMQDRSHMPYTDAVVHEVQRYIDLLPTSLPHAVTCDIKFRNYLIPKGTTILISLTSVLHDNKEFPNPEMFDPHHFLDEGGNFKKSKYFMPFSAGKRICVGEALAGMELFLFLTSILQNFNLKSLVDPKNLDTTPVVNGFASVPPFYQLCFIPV

[4] = target: CYP3A4 (Homo sapiens, UniProt P08684)
Chain of CYP3A4 (P08684 whole entry): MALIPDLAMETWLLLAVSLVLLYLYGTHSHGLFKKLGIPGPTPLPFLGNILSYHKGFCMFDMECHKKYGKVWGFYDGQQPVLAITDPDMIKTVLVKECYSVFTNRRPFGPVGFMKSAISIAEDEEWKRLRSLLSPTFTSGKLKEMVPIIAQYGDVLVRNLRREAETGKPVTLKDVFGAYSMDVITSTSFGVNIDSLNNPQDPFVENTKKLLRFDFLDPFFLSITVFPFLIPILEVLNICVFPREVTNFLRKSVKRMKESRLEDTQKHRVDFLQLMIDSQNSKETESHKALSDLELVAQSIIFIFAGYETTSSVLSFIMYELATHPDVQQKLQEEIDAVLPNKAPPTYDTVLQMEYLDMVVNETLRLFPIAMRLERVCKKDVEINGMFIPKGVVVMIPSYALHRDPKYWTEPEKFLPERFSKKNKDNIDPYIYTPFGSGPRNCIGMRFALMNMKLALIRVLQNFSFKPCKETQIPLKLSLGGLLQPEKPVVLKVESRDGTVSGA

[5] = target: CYP2C19 (Homo sapiens, UniProt P33261)
Chain of CYP2C19 (P33261 whole entry): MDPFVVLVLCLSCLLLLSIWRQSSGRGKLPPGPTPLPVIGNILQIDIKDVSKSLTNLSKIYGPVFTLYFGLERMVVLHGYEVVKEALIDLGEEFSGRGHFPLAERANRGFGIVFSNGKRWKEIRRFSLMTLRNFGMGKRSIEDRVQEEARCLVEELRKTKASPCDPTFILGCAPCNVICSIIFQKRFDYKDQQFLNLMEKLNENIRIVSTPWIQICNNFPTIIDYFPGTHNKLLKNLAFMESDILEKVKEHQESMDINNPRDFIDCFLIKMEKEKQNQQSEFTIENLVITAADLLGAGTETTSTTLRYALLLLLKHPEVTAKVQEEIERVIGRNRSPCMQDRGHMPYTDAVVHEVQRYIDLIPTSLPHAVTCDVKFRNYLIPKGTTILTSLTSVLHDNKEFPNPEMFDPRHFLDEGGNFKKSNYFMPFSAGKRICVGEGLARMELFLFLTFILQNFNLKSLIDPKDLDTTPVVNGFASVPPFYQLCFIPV

Measured: IC50

C/C(=N\OCC(=O)O)c1nc2ccccc2n([C@H]2C[C@H]3CCC[C@@H](C2)N3C2CC3CCCCC(C3)C2)c1=O (stereo partly drawn) [Compound 24, 2-((E)-1-(4-((1R,3R)-9-(bicyclo[4.3.1]decan-8-yl)-9-azabicyclo[3.3.1]nonan-3-yl)-3-oxo-3,4-dihydroquinoxalin-2-yl)ethylideneaminooxy)acetic acid]
> 20 µM: all assays above

CCON=C(C(=O)O)c1nc2ccccc2n([C@H]2C[C@H]3CCC[C@@H](C2)N3C2CC3CCCC(C3)C2)c1=O (stereo partly drawn) [Compound 30]
> 20 µM: all assays above

CC(C)ON=C(C(=O)O)c1nc2ccccc2n([C@H]2C[C@H]3CCC[C@@H](C2)N3C2CC3CCCC(C3)C2)c1=O (stereo partly drawn) [Compound 31]
> 20 µM: all assays above

CCON=C(C(=O)O)c1nc2ccccc2n([C@H]2C[C@H]3CCC[C@@H](C2)N3C2CC3CCCCC(C3)C2)c1=O (stereo partly drawn) [Compound 32, 2-(4-((1R,3R)-9-(bicyclo[4.3.1]decan-8-yl)-9-azabicyclo[3.3.1]nonan-3-yl)-3-oxo-3,4-dihydroquinoxalin-2-yl)-2-(ethoxyimino)acetic acid]
> 20 µM: all assays above

CC(C)O/N=C(\C(=O)O)c1nc2ccccc2n([C@H]2C[C@H]3CCC[C@@H](C2)N3C2CC3CCCCC(C3)C2)c1=O (stereo partly drawn) [Compound 33, 2-(4-((1R,3R)-9-(bicyclo[4.3.1]decan-8-yl)-9-azabicyclo[3.3.1]nonan-3-yl)-3-oxo-3,4-dihydroquinoxalin-2-yl)-2-(isopropoxyimino)acetic acid]
> 20 µM: all assays above

CCON=C(C(=O)O)c1nc2ccccc2n([C@H]2C[C@H]3CC[C@@H](C2)N3C2CC3CCCCC(C3)C2)c1=O (stereo partly drawn) [Compound 36]
> 20 µM: all assays above

CC(C)ON=C(C(=O)O)c1nc2ccccc2n([C@H]2C[C@H]3CC[C@@H](C2)N3C2CC3CCCCC(C3)C2)c1=O (stereo partly drawn) [Compound 37, [4-((1S,3R,5R)-(1R,6S,8S)-8-bicyclo[4.3.1]dec-8-yl-8-aza-bicyclo[3.2.1]oct-3-yl)-3-oxo-3,4-dihydro-quinoxalin-2-yl]-isopropoxyimino-acetic acid]
> 20 µM: all assays above

NC(=O)CO/N=C(\C(=O)O)c1nc2ccccc2n([C@H]2C[C@H]3CCC[C@@H](C2)N3C2CC3CCCC(C3)C2)c1=O (stereo partly drawn) [Compound 38, (Z)-2-(2-amino-2-oxoethoxyimino)-2-(4-((1R,3R)-9-(bicyclo[3.3.1]nonan-3-yl)-9-azabicyclo[3.3.1]nonan-3-yl)-3-oxo-3,4-dihydroquinoxalin-2-yl)acetic acid]
> 20 µM: all assays above

NC(=O)CO/N=C(\CCC(=O)O)c1nc2ccccc2n([C@H]2C[C@H]3CCC[C@@H](C2)N3C2CC3CCCC(C3)C2)c1=O (stereo partly drawn) [Compound 39]
> 20 µM: all assays above

NC(=O)CO/N=C(\CCC(=O)O)c1nc2ccccc2n([C@H]2C[C@H]3CCC[C@@H](C2)N3C2CC3CCCCC(C3)C2)c1=O (stereo partly drawn) [Compound 41, (E)-4-(2-amino-2-oxoethoxyimino)-4-(4-((1R,3R)-9-(bicyclo[4.3.1]decan-8-yl)-9-azabicyclo[3.3.1]nonan-3-yl)-3-oxo-3,4-dihydroquinoxalin-2-yl)butanoic acid]
> 20 µM: all assays above

CNC(=O)CCC(=NOCC(=O)O)c1nc2ccccc2n([C@H]2C[C@H]3CCC[C@@H](C2)N3C2CC3CCCC(C3)C2)c1=O (stereo partly drawn) [Compound 42, 2-(((1-(4-((1R,1′R,3r,3′R,5S,5′S)-[3,9′-bi(9′-azabicyclo[3.3.1]nonan)]-3′-yl)-3-oxo-3,4-dihydroquinoxalin-2-yl)-4-(methylamino)-4-oxobutylidene)amino)oxy)acetic acid]
> 20 µM: all assays above

CNC(=O)/C(=N\OCC(=O)O)c1nc2ccccc2n([C@H]2C[C@H]3CCC[C@@H](C2)N3C2CC3CCCC(C3)C2)c1=O (stereo partly drawn) [Compound 43]
> 20 µM: all assays above

NC(=O)CCC(=NOCC(=O)O)c1nc2ccccc2n([C@H]2C[C@H]3CCC[C@@H](C2)N3C2CC3CCCC(C3)C2)c1=O (stereo partly drawn) [Compound 44]
> 20 µM: all assays above

NC(=O)CO/N=C(\C(=O)O)c1nc2ccccc2n([C@H]2C[C@H]3CCC[C@@H](C2)N3C2CC3CCCCC(C3)C2)c1=O (stereo partly drawn) [Compound 45, (Z)-2-(2-amino-2-oxoethoxyimino)-2-(4-((1R,3R)-9-(bicyclo[4.3.1]decan-8-yl)-9-azabicyclo[3.3.1]nonan-3-yl)-3-oxo-3,4-dihydroquinoxalin-2-yl)acetic acid]
> 20 µM: all assays above

COCCO/N=C(\C(=O)O)c1nc2ccccc2n([C@H]2C[C@H]3CCC[C@@H](C2)N3C2CC3CCCCC(C3)C2)c1=O (stereo partly drawn) [Compound 46]
> 20 µM: all assays above

COCCO/N=C(\C(=O)O)c1nc2ccccc2n([C@H]2C[C@H]3CCC[C@@H](C2)N3C2CC3CCCC(C3)C2)c1=O (stereo partly drawn) [Compound 49]
> 20 µM: all assays above

CON=C(C(=O)O)c1nc2ccccc2n([C@H]2C[C@H]3COC[C@@H](C2)N3C2CC3CCCCC(C3)C2)c1=O (stereo partly drawn) [Compound 50, [4-((1R,5S,7S)-(1S,6R,8R)-9-bicyclo[4.3.1]dec-8-yl-3-oxa-9-aza-bicyclo[3.3.1]non-7-yl)-3-oxo-3,4-dihydro-quinoxalin-2-yl]-methoxyimino-acetic acid]
> 20 µM: all assays above

CN(C)C(=O)C(=NOCC(=O)O)c1nc2ccccc2n([C@H]2C[C@H]3CCC[C@@H](C2)N3C2CC3CCCC(C3)C2)c1=O (stereo partly drawn) [Compound 51]
> 20 µM: all assays above

CC(O/N=C(\C(=O)O)c1nc2ccccc2n([C@H]2C[C@H]3CCC[C@@H](C2)N3C2CC3CCCC(C3)C2)c1=O)C(N)=O (stereo partly drawn) [Compound 52]
> 20 µM: all assays above

CC(C)C(O/N=C(\C(=O)O)c1nc2ccccc2n([C@H]2C[C@H]3CCC[C@@H](C2)N3C2CC3CCCC(C3)C2)c1=O)C(N)=O (stereo partly drawn) [Compound 53]
> 20 µM: all assays above

CNC(=O)C(=NOCC(=O)O)c1nc2ccccc2n([C@H]2C[C@H]3CCC[C@@H](C2)N3C2CC3CCCCC(C3)C2)c1=O (stereo partly drawn) [Compound 54]
> 20 µM: all assays above
